# Laboratory results: US20120059038A1, “[…]” (Astellas Pharma Inc., priority 2009, published 2012)
# How the values were obtained:
# [1] = Cytotoxicity to EL-4 cells, cell counting kit; assay type: cell-based, mouse; settings: mouse, EL-4 mouse T lymphoma cells, 37° C.
# Method: (§1) Cytotoxicity was evaluated by adding a test drug to mouse T lymphoma cell line EL-4 at various concentrations, incubating the cells in a CO2 incubator at 37° C. for 72 hours, counting the cells using a cell counting kit (Wako Pure Chemical Industries, Ltd.), and calculating IC50 values.
# [2] = test system: mouse T lymphoma cell line EL-4; assay: Cytotoxicity to EL-4 cells, cell counting kit; assay type: cell-based; settings: 37° C., 72 hours
# Method: as §1
# [3] = test system: Cryptococcus neoformans FP1739; assay: Antifungal activity, broth microdilution method; assay type: cell-based; settings: minimum inhibitory concentration
# Method: (§2) Antifungal activities for the following test fungi were determined by a broth microdilution method (Hikaru Kume and Toshikazu Yamazaki, Clinical Microbiology, Vol. 21, No. 5, pp. 573-580, 1994).
# [4] = test system: Trichophyton rubrum FP596; assay: Antifungal activity, broth microdilution method; assay type: cell-based; settings: minimum inhibitory concentration
# Method: as §2
# [5] = test system: Alternaria alternata AHU9258; assay: Antifungal activity, broth microdilution method; assay type: cell-based; settings: minimum inhibitory concentration
# Method: as §2
# [6] = test system: Trichophyton mentagrophytes FP2103; assay: Antifungal activity, broth microdilution method; assay type: cell-based; settings: minimum inhibitory concentration
# Method: as §2
# [7] = test system: Aspergillus fumigatus FP1305; assay: Antifungal activity, broth microdilution method; assay type: cell-based; settings: minimum inhibitory concentration
# Method: as §2
# Complex III = Complex III inhibitory activity, ubiquinol-cytochrome c reductase assay using isolated mitochondrial fraction; assay type: biochemical; settings: mitochondrial fraction of Trichophyton mentagrophytes FP2103; kind of value (IC50 or other) not stated
# Method: A medium (0.1% glucose, 0.2% bacto tryptone, 0.2% K2HPO4, 0.005% MgSO4.7H2O and 0.005% CaC12.2H2O) was poured into an Erlenmeyer flask and sterilized by autoclaving. Conidiophores of Trichophyton mentagrophytes FP2103 were inoculated into the medium, and cultured at 30° C. for 40 hours while shaking on a rotary shaker. The fungus was collected from the cultural solution and dipped in a cell wall lysis enzyme solution {1 M KC1, 25 mM CaC12.2H2O, 10 mM MgC12.6H2O, 5 mg/mL zymolyase-100T (Seikagaku Corporation), 1 mg/mL chitinase (Sigma) and 5 mg/mL drieselase (Sigma)}, and the resulting mixture was stirred at 30° C. for 4 hours. The enzyme treatment solution was filtered through glass funnel filled with gauze to obtain protoplast. A mitochondrial fraction was isolated from the protoplast by using a Mitochondria Isolation Kit (BioChain Institute, Inc.). The Complex III inhibitory activity was measured in the ubiquinol-cytochrome c reductase assay using the isolated mitochondrial fraction (The Journal of Biological Chemistry, 279, pp. 8708-8714, 2004). As a result, the compound A inhibited the complex III at 0.9 ng/mL.
# [8] = test system: dormantfungi present around infections; settings: reported in Mycoses, 46, pp. 505-510, 2003; cited from earlier work
SMILES,IC50 at 72 h [1] [µg/mL],concentrations showing no cytotoxic effect [2] [ng/mL],MIC [3] [µg/mL],MIC [4] [µg/mL],MIC [5] [µg/mL],MIC [6] [µg/mL],MIC [7] [µg/mL],concentration at which complex III was inhibited (Complex III) [ng/mL],activity against dormant fungi [8]
CCC(C)CC(C)CCC1CCCC(c2c(O)c(C3C(O)C(O)C(O)C3O)cn(C)c2=O)O1 (stereo not drawn) [compound A],6.2,≤ 3100,1.3,0.1,6.3,0.1,25,0.9,
CN(C/C=C/C#CC(C)(C)C)Cc1cccc2ccccc12 [Terbinafine],,,,,,,,,weak activity
